This data set is described as follows: Solubility in solvent commonly used in the synthesis of polyimide (NMP, DMAc). Type of data set: physicochemical. The source says: In the following descriptions, features and effects of the present disclosure will be described more specifically with reference to some Embodiments and some Comparative Examples. It is noted that without exceeding the scope of the present disclosure, the materials used, their amount and ratio, processing details, processing flow, etc. can be appropriately alternated. Therefore, the present disclosure should not be interpreted restrictively by the Embodiments provided below. Specifically, each Comparative Example and each Embodiment are thoroughly mixed with solvent commonly used in the synthesis of polyimide (e.g., N-methylpyrrolidone (NMP) and dimethylacetamide (DMAc)), and the solubility of each Comparative Example and each Embodiment in the solvent is measured, so as to verify the efficacy of the present disclosure. The detailed description and the measurement results of the solubility of each Comparative Example and each Embodiment are shown in Table 1.

As to `Nc1ccc(N)cc1` [Comparative Example 1, para-phenylenediamine], the “Solubility (g/100 g solvent)” value (solvent NMP, dissolution temperature 50° C.) is recorded as 4.1 g/100 g solvent.

In the case of `NC1CCC(N)CC1` (centres unmarked) [Comparative Example 2, 1,4-cyclohexanediamine], the “Solubility (g/100 g solvent)” value (solvent DMAc, dissolution temperature 70° C.) turned out to be 5.7 g/100 g solvent.
